Measurements: patent publication US20030148269A1, “Centrifugally-enhanced method of determining ligand/target affinity” (priority 1999, published 2003)
Read-outs that look alike come from different tables or passages of the source.

Tests used:
[1] = target: yeast ribosomes isolated from Saccharomyces cerevisiae; assay: spin-screen: centrifugation with yeast ribosomes, GFP fluorescence in each of five fractions
[2] = Solubility in the centrifuge carrier solvent (buffer), spun without protein; format: physicochemical
Experimental: (§1) Proteins and protein fragments were isolated from recombinant material produced in E. coli as described in detail below. Proteins and protein fragments were dialyzed into standard buffers comprising either a) a mixture of 20 mM ammonium bicarbonate and 1 mM sodium azide, the pH adjusted to pH 7.2 by the addition of acetic acid, or b) 50 mM Tris-HCl, 30 mM KCl, 10 mM magnesium acetate, 10 mM 2-mercaptoethanol, 1 mM sodium azide, and 10% glycerol, pH adjusted to 7.8. In the case of the first buffer system, additional ingredients, specific to each protein, were added to the buffer mixture which included 5 mM 2-mercaptoethanol for erythromycin resistant methylase (Erm-AM), and both 5 mM 2-mercaptoethanol and 10 mM calcium chloride for the stromelysin catalytic domain (SCD). Initial protein or protein fragment concentrations ranged between 100 μM and 1 mM.
Test compounds were made up in concentrated solutions in dimethyl sulfoxide and diluted into the protein or protein fragment buffer solutions such that the final concentration of dimethyl sulfoxide in the buffer solutions was 1% volume/volume. As a result, each compound in the mixture of test compounds had equal access to available binding sites on the target molecule.
The analysis was carried out with a 25-compound library using the spin-screen method of the present invention with the compound concentration gradients being determined by mass spectrometry. Sample preparation, centrifugation, analysis by mass spectrometry, and data analysis were according to the techniques described above under the heading “General Methodology.” The results are shown in FIGS. 3A and 3B. The figures represent planar cuts of the three-dimensional surface contour plot defined by the three axes: m/z, sample fraction, and mass spectral signal intensity. The planar cuts are taken at comparatively high values constant values of m/z. That is to say, at m/z signal levels which detected only the most strongly binding ligands in the 25-compound library.
The analysis was carried out with a 25-compound library using the spin-screen method of the present invention with the compound concentration gradients being determined by mass spectrometry. Sample preparation, centrifugation, analysis by mass spectrometry, and data analysis were according to the techniques described above under the heading “General Methodology.” The results are presented in FIGS. 5A and 5B.

[3] = target: T1, erythromycin resistant methylase (Erm-AM) (Streptococcus pneumoniae, UniProt P21236); format: binding; conditions: 25-compound library, mass spectrometry of five fractions, with Erm AM vs buffer only
T1 construct: made in house; host or cells: E. coli BL21(DE3)/pV4, pET-24(+)
T1 sequence (P21236 whole entry, change not shown): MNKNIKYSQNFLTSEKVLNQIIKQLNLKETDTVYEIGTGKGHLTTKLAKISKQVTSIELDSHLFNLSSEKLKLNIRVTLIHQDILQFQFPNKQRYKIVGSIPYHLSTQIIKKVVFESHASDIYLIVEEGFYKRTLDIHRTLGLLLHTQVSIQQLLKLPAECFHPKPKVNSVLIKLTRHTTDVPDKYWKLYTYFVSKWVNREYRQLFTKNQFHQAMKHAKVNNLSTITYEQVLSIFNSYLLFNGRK
Experimental: as §1
(§2) Test compounds were made up in concentrated solutions in dimethyl sulfoxide and diluted into the protein or protein fragment buffer solutions such that the final concentration of dimethyl sulfoxide in the buffer solutions was 1% volume/volume.
The compounds were added to the protein or buffer solutions in 7 mm×20 mm polycarbonate centrifuge tubes, mixed by vortexing, and placed in the centrifuge. Each mixture was then subjected to centrifugation at a speed and for a period of time sufficient to clear the solution of macromolecular target, but not of ligand. Centrifugation was carried out either in a Model TL-100 ultracentrifuge at 100,000 rpm using a TLA-100 rotor, or in a Model L-70 ultracentrifuge at 42,000 rpm using a type 42.2 rotor. (Both centrifuges are manufactured by Beckman Instruments, 1050 Page Mill Road, Palo Alto, Calif. […], USA.)
Following centrifugation, the tubes were removed from the rotor and the tube contents divided into equal volume fractions. Any reasonable number of fractions may be employed; typically four or five fractions are used. To take the fractions, a pipette was carefully inserted into the liquid column in the sample tube to a point just below the liquid meniscus. […] The fractions were individually dispensed into microfuge tubes for analysis.
Mass spectrometric analysis of the samples was performed using either electrospray ionization (ESI) or atmospheric pressure chemical ionization (APCI) techniques. The ESI technique employed either a Model TSQ-700 or a Model LCQ mass spectrometer, and the APCI technique employed a Model LCQ mass spectrometer (both instruments manufactured by the Finnigan Corporation, 355 River Oaks Parkway, San Jose, Calif. 95134, USA).
For ESI analysis, fraction samples were diluted 1:5 with 50% aqueous acetonitrile, leaving the protein or protein fragment in solution. Ten-microliter aliquots, each representing about 10% of the sample, were introduced individually into the instrument by flow injection using 50% aqueous acetonitrile as the carrier. For initial studies with APCI, fractions were likewise diluted 1:5 with 50% aqueous acetonitrile. […] To reduce this background, subsequent samples analyzed by the APCI technique were diluted 1:5 with neat acetonitrile which caused the proteins or protein fragments to release their bound test compounds and precipitate. Sample solutions were then clarified by centrifugation in a microfuge for five minutes prior to analysis by APCI.

[4] = target: T2, stromelysin catalytic domain (SCD) (Homo sapiens, UniProt P08254); assay: Affinity (Ki) for SCD previously determined by another method; format: binding
Target sequence in this assay (P08254 100-273): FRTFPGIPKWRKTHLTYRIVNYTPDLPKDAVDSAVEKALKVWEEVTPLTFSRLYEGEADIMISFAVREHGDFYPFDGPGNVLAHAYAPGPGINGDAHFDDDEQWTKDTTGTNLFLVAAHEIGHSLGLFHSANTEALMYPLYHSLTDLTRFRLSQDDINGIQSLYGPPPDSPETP

[5] = target: T2, stromelysin catalytic domain (SCD); assay: Spin-screen (centrifugation) affinity binding to SCD, concentration gradients by HPLC; design: coding for amino acid residues 81-256 plus an initiating methionine aminoacyl residue; initiating methionine (N); made in house; host or cells: E. coli BL21(DE3)/pLysS, plasmid pETST-81-256 (pET3d); conditions: 100 μM ligand, 100 μM SCD; HPLC of five fractions; with SCD vs buffer only
Experimental: as §1, §2
Target sequence in this assay (P08254 98-272): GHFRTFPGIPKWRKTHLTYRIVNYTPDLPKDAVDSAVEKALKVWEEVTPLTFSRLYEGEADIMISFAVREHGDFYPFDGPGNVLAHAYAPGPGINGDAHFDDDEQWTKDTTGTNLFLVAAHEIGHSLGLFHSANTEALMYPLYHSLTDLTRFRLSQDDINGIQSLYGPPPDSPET
The compounds were added to the protein or buffer solutions in 7 mm×20 mm polycarbonate centrifuge tubes, mixed by vortexing, and placed in the centrifuge. […]

[6] = buffer with 1% dimethyl sulfoxide

Molecule: GFP-EF3 fusion protein GFP-980-1019
- fraction of total fluorescence (fraction of total fluorescence) [1]: 0.2

Molecule: GFP-EF3 fusion protein GFP-980-1008
- fraction of total fluorescence (fraction of total fluorescence) [1]: 0.2

Molecule: GFP-EF3 fusion protein GFP-980-1013
- fraction of total fluorescence (fraction of total fluorescence) [1]: 0.2

Molecule: Nc1nc(NC2CCCCC2)nc(-c2ccc(O)cc2)n1 [4-[4-amino-6-(cyclohexylamino)-1,3,5-triazin-2-yl]phenol]
- Solubility in the carrier solvent [2]: soluble
- Binding to Erm AM from concentration gradient after centrifugation [3]: strongly bind

Molecule: GFP-EF3 fusion protein GFP-980-1008:1025-1031
- fraction of total fluorescence (fraction of total fluorescence) [1]: 0.2

Molecule: Nc1cc(Cl)c(S(N)(=O)=O)cc1S(N)(=O)=O [4-amino-6-chloro-1,3benzenesulfonamide]
- Solubility in the carrier solvent [2, 6]: soluble
- Binding to Erm AM from concentration gradient after centrifugation [3]: medium binding
- Binding to Erm AM from concentration gradient after centrifugation ([3]; listed as 4-amino-6-chloro-1,3-benzenesulfonamide): bind to Erm AM

Molecule: N-[3-(2,4-dichloro-6-hydroxyphenyl)propyl]-N′-(2,3-dihydro-1H-inden-2-yl)
- Solubility in the carrier solvent [2]: insoluble
- Binding to Erm AM from concentration gradient after centrifugation [3]: strongly bind

Molecule: CN(CCCc1c(O)cc(Cl)cc1Cl)c1nc(N)nc(NC2CCCCC2)n1 [N′cyclohexyl-N-[3-(2,4-dichloro-6-hydroxyphenyl)propyl]-N-methyl-1,3,5triazine-2,4,6-triamine]
- Solubility in the carrier solvent [2]: insoluble
- Binding to Erm AM from concentration gradient after centrifugation [3]: strongly bind

Molecule: O=c1cc(O)c2ccccc2n1-c1ccc(OCc2ccccc2)cc1 [4-hydroxy-1-[4-(phenylmethoxy)phenyl]-2(1H)-quinoline]
- Solubility in the carrier solvent [2, 6]: soluble
- Binding to Erm AM from concentration gradient after centrifugation [3]: strongly bound
- Binding to Erm AM from concentration gradient after centrifugation ([3]; listed as 4-hydroxy-1-[4-(phenylmethoxy)-phenyl]-2(1H)-quinoline): bind to Erm AM

Molecule: N#Cc1ccc(-c2ccc(O)cc2)cc1 [4′-hydroxy-1,1-biphenyl-4-carbonitrile]
- Ki [4]: ~1000 µM
- Binding to SCD from concentration gradient after centrifugation [5]: binds weakly

Molecule: GFP-EF3 fusion protein GFP-980-1025
- fraction of total fluorescence (fraction of total fluorescence) [1]: 0.2

Molecule: Nc1nc(NC2CCCCC2)nc(N2CCCCC2)n1 [N-cyclohexyl-6-(1-piperidinyl)-1,3,5-triazine-2,4-diamine]
- Solubility in the carrier solvent [2]: soluble
- Binding to Erm AM from concentration gradient after centrifugation [3]: strongly bind
- Binding to Erm AM from concentration gradient after centrifugation ([3]; listed as m/z=277): bound more strongly to Erm-AM than the compound at m/z=286

Molecule: O=C(Nc1ccc(C(=O)O)cc1)Nc1cccc(C(F)(F)F)c1 [4-[[[[3-(trifluoromethyl)phenyl]amino]-carbonyl]amino]benzoic acid]
- Binding to Erm AM from concentration gradient after centrifugation [3]: bound weakly
- Binding to Erm AM from concentration gradient after centrifugation ([3]; listed as 4-[[[(3-trifluoromethyl)-phenyl]amino]carbonyl]amino]benzoic acid): bind to Erm AM

Molecule: O=C(O)c1ccccc1C(=O)OC(c1ccccc1)c1cccc(Cl)c1 (centres unmarked) [1,2-benzenedicarboxylic acid, mono[(3-chlorophenyl)phenylmethyl] ester]
- Binding to Erm AM from concentration gradient after centrifugation [3]: bound strongly
- Binding to Erm AM from concentration gradient after centrifugation ([3]; mono [(3-chloro-phenyl)phenylmethyl] ester): bind to Erm AM
